Results taken from patent US12465582B2, “(S)-2-amino-6-((3-aminopropyl)amino)hexanoic acid (APL) for use in the treatment of non-alcoholic steatohepatitis (NASH), liver inflammation, hepatocellular ballooning, liver fibrosis and steatosis” (Temple University—Of The Commonwealth System Of Higher …, priority 2020, dated 2025).

Tests used:
[1] = test system: C57BL/6J mice fed high fat/high fructose diet (HFD); assay: Hepatic steatosis: liver histology (H&E, BODIPY/DAPI) in HFD mouse NASH model; assay type: in vivo
From the text: As in Example 1, C57BL/6 mice (same sample of mice as in Example 1) were maintained in cages (5 mice per cage) and had free access to standard rodent chow (Cat #5053, obtained from Labdiet, Saint Louis, MO) and water (filtered and packed using a Hydrapak system) for 5 days. […] The APL dose was 200 milligram per kilogram (mg/kg) per day, administered as two 100 milligram per kilogram (mg/kg) body weight APL (p.o.b.i.d.). Animals were fed ad libitum. The animals were humanely euthanized, and the livers were removed for histological analysis. Liver samples in formalin were allowed to fix for 48 hours, and processed into FFPE blocks after fixations. Slides were stained with hematoxylin and eosin (H&E) and to immunostaining with BODIPY and DAPI to quantitate fat deposition and nuclei number using confocal microscopy. See, e.g., Rico et al, 2007, J Cell Physiol, 211(2):504-12; and Daemen et al, 2016, Mol Metab, 5(3) 153-63. The data are depicted in FIGS. 3, 4, and 5
FIG. 5D is the plot of fat deposition assessed using confocal microscopy. Measurements were made in 20×-magnification fields. More than 21 fields from three different animals from each group were analyzed: Chow-vehicle (#fields=26), HFD-Vehicle (#fields=25) and HFD-APL (#fields=23). Indirect measurement using imageJ (Schneider et al., 2012, Nature Methods 9(7): 671-675) was used to calculate fat deposition. Fat deposition was increased 3-fold in HFD/vehicle-treated mice compared with CHOW control mice and with HFD/APL-treated mice (***p<0.001).

[2] = test system: C57BL/6J mice fed high fat/high fructose diet (HFD); assay: NAFLD Activity Score (NAS) in HFD DIO mouse model of NASH; assay type: in vivo; settings: 130 days
Procedure: C57BL/6J mice were maintained in cages (5 mice per cage) and had free access to standard rodent chow (Cat #5053, obtained from Labdiet, Saint Louis, MO) and water (filtered and packed using a Hydrapak system) for 5 days until the start of the experiment. The animals were then randomly assigned to three groups (n=5 for each group receiving different diets and treatments as shown in Table B for 130 days. Each treatment was administered p.o.b.i.d. The APL dosage was 200 mg/kg body weight. “HFD” is high fat/high fructose diet, as described in Example 1 “Chow” refers to standard rodent chow, as described in Example 1. Animals were fed ad libitum.
At the conclusion of the test period, the animals were humanely euthanized, and the livers were removed for histological analysis. Liver samples in formalin were allowed to fix for 48 hours, and processed into FFPE blocks after fixations. Slides were stained with hematoxylin and eosin (H&E). FIG. 6A is the representation of multiple images of hematoxylin & eosin (H&E) staining of liver sections.
The liver samples were evaluated for liver fat (steatosis), inflammation, and hypertrophy in accordance the NAS scoring system. The NAS scoring is depicted in FIG. 6B. The NAS score for mice in the HFD/vehicle-treated mice is increased in all the pathological parameters, when compared with the CHOW/vehicle-treated mice: macrovesicular steatosis, microvesicular steatosis, hepatic hypertrophy and inflammatory foci. […] Thus, APL attenuates hepatic steatosis, inflammation and hypertrophy in the liver, each pathognomic of liver damage and NASH.

[3] = See WO 2018/049019 and US 2019/0192462; cited from earlier work
[4] = test system: C57BL/6J mice fed AMLN diet changed to HFD; assay: Liver function serum biomarkers in AMLN diet mouse model of NASH; assay type: in vivo; settings: 16 weeks (week 50-66)
Procedure: C57BL/6 mice were maintained in cages and had free access to standard rodent chow (Cat #5053, obtained from Labdiet, Saint Louis, MO) and water. C57BL/6J mice were fed either CHOW (negative control) or amylin liver NASH (AMLN) diet (58% high fat, 25% carbohydrate, 2% cholesterol) for twenty (20) weeks. Beginning at twenty (20) weeks, animals fed AMLN diet were changed to HFD. At fifty (50) weeks, animals were treated twice daily (b.i.d.) with oral administration (p.o.) of either vehicle (positive control) or APL (treated).

[5] = test system: C57BL/6J mice fed high fat/high fructose diet (HFD); assay: Glucose tolerance test (GTT) in diet-induced obesity (HFD) mouse model of NASH; assay type: in vivo; settings: APL 200 mg/kg/day p.o. in two doses, 130 days
From the text: C57BL/6J mice 5 week old male mice obtained from Jackson Laboratories, Bar Harbor, ME, USA) were maintained in cages (5 mice per cage) and had free access to standard rodent chow (Cat #5053, obtained from Labdiet, Saint Louis, MO) and water (filtered and packed using a Hydrapak system) for 5 days until the start of the experiment. The animals were then randomly assigned to five groups (n=5 for each group) receiving different diets and treatments as shown in Table A for 130 days. Each treatment was administered p.o.b.i.d. The APL dosage administered to each animal was 200 milligrams per kilogram of body weight divided in two dosages per day, via oral gavage and the pioglitazone dosage received each animal was 20 milligrams per kilogram of body weight divided in two dosages per day, via oral gavage. “HFD” is high fat/high fructose diet, which contains 58% fat, 25% carbohydrate and 17% protein. HFD was obtained from Research Diets, Inc. “Chow” refers to standard rodent chow (Cat #5053, obtained from Labdiet, Saint Louis, MO). Animals were fed ad libitum, except during the GTT experiments.
At the conclusion of the experimental time period (78 days for rats and 130 days for mice), the animals were subjected to a glucose tolerance test (GTT) as follows. Animals were fasted for 5 hours, weights, and their tails were clipped to measure fasting blood glucose levels. Immediately after, glucose (2 mg/g body weight) was administered orally. Glucose levels were measured at 0, 15, 30, 45, 60, and 120 minutes after glucose administration. Glucose was measured using the AlphaTRAK 2 glucometer from Abbott

[6] = HFD mice, APL 200 mg/kg/day p.o. b.i.d., 20 weeks

Compound: NCCCNCCCC[C@H](N)C(=O)O [APL, (S)-2-amino-6-((3-aminopropyl)amino)hexanoic acid]
- number of nuclei (DAPI) of HFD/vehicle mice compared to mice fed HFD and treated with APL ([1]; APL 200 mg/kg/day p.o. b.i.d., ***p<0.001): statistically significant fewer
- fat deposition, increase in HFD/vehicle-treated mice compared with HFD/APL-treated mice ([1]; APL 200 mg/kg/day p.o. b.i.d., confocal microscopy, ImageJ, ***p<0.001): 3 fold
- hepatocyte ballooning induced by HFD in H&E liver sections (FIG. 3) ([1]; HFD mice treated with APL for 131 days, 20x magnification): minimal or no ballooning
- anatomical structure of the liver, H&E (FIG. 5A) ([1]; HFD mice, APL 200 mg/kg/day p.o. b.i.d.): retained the normal anatomy of the liver
- hepatocyte fat accumulation, inflammatory infiltration and hepatocyte ballooning in H&E liver sections ([1]; HFD mice, APL 200 mg/kg/day p.o. b.i.d., 18 weeks, vs HFD vehicle): less severe
- fat deposition, treated group vs negative control (chow vehicle) [1, 6]: No significant statistical difference
- number of nuclei (hepatocytes), treated group vs negative control (chow vehicle) [1, 6]: no statistical differences
- NAS parameters: macrovesicular steatosis, microvesicular steatosis, hepatic hypertrophy, inflammatory foci (FIG. 6B) ([2]; APL 200 mg/kg p.o. b.i.d., vs HFD vehicle, ***p<0.001): statistically significant amelioration
- lobular inflammation score, treated group vs negative control (FIG. 7B) ([2]; APL 200 mg/kg, ****p<0.0001): significant statistical difference
- NAS component scores: steatosis, lobular inflammation, hepatic ballooning (FIG. 7B), treated vs positive control ([2]; APL 200 mg/kg/day divided into 2 doses, ****p<0.0001): significantly reduces
- affinity for 4-HNE [3]: high affinity
- serum ALP vs positive control ([4]; APL 50 mg/kg/day p.o. b.i.d.): significant reduction
- serum ALT vs positive control ([4]; APL 50 mg/kg/day p.o. b.i.d.): significant reduction
- serum AST vs positive control ([4]; APL 50 mg/kg/day p.o. b.i.d.): significant reduction
- serum nonesterified fatty acids (NEFA) vs positive control ([4]; APL 50 mg/kg/day p.o. b.i.d.): significant reduction
- serum triglycerides vs positive control ([4]; APL 50 mg/kg/day p.o. b.i.d.): significant reduction
- serum cholesterol vs positive control ([4]; APL 200 mg/kg/day p.o. b.i.d.): significant reduction
- AUC of GTT of HFD/vehicle mice compared to mice fed HFD and treated with APL ([5]; **p<0.01): significantly higher
- blood glucose levels in GTT, treated vs negative control (chow vehicle) ([5]; HFD mice, any time point 0-120 min): no significant statistical difference
- blood glucose levels in GTT, treated vs positive control (HFD vehicle) ([5]; HFD mice, at 15-min (p<0.0001), 60-min (p<0.05), 120-min (p<0.001)): significant statistical difference
